{"source": "patent US20150352164A1", "about": "“COMPOSITION COMPRISING THEANINE AND AN EXTRACT OF INULA RACEMOSA” (CONOPCO, INC., D/B/A UNILEVER, priority 2012, published 2015)", "test_system": "3T3L1 (mouse preadipocytes), differentiated to mature adipocytes; adiponectin secretion", "assay": "Adiponectin assay: adiponectin secretion from differentiated 3T3L1 adipocytes, ELISA of supernatants", "format": "cell-based", "details": "for % of adiponectin (control cells taken as hundred): 48 hrs", "protocol": "Adiponectin Assay Protocol • 3T3L1 (mouse preadipocytes) were plated on a 96 well plate at a density of 3*10^3 cells per well; • After 5 days of post confluency (a condition where the cells form a uniform layer) the cells were differentiated (a process where premature adipocytes are transformed to mature adipocytes) in differentiation medium for 10 days; • On the 11th day the matured adipocytes were treated with non cytotoxic concentrations (concentrations stated below) of the inula racemosa extract and theanine; • The cells were incubated for 48 hrs and supernatants were collected and stored. They were analysed to detect level of Adiponectin by ELISA; • The efficacy of the test ingredient was evaluated with respect to the untreated control (media control); • If any of the tested combinations of inula racemosa extract and theanine on increased adiponectin level was larger in a statistically significant way than the additive effect or individual components, then the particular combination is considered to be synergistic. To investigate the efficacy of inula racemosa and theanine in increasing adiponectin secretion from 3T3L1, the cells were treated with varying concentrations of inula racemosa (as obtained set out herein in the Materials section) and theanine in cell culture medium. The % of adiponectin from control cells were taken as hundred, upon which the treatment values were calculated. […] A range of combination varying amounts of inula racemosa extract and theanine were investigated on its joint ability for adiponectin secretion. The combinations used were (weight ratio's theanine:inula racemosa extract): 100:1 ([…]), 100:10,000 (H). This was achieved via dissolution of the components in aqueous stock solutions."}
{"compound": "CCNC(=O)CCC(N)C(=O)O", "note": "(stereo not shown) [Theanine, 2-Amino-4-(ethylcarbamoyl)butyric acid]", "values": [{"measurement": "% of adiponectin (control cells taken as hundred)", "setting": "0.00001% wt of inula r. extract or theanine in cell culture medium", "value": "106.7 +/− 7.4%"}, {"measurement": "% of adiponectin (control cells taken as hundred)", "setting": "0.00002% wt of inula r. extract or theanine in cell culture medium", "value": "107.0 +/− 7.0%"}, {"measurement": "% of adiponectin (control cells taken as hundred)", "setting": "0.00005% wt of inula r. extract or theanine in cell culture medium", "value": "136.7 +/− 7.3%"}, {"measurement": "% of adiponectin (control cells taken as hundred)", "setting": "0.0001% wt of inula r. extract or theanine in cell culture medium", "value": "141.7 +/− 1.6%"}, {"measurement": "% of adiponectin (control cells taken as hundred)", "setting": "0.0005% wt of inula r. extract or theanine in cell culture medium", "value": "145.8 +/− 8.2%"}, {"measurement": "% of adiponectin (control cells taken as hundred)", "setting": "0.001% wt of inula r. extract or theanine in cell culture medium", "value": "156.0 +/− 8.5%"}, {"measurement": "adiponectin levels, in-vitro, separately", "setting": "varying concentrations, 3T3L1 cells", "value": "increased adiponectin levels"}]}
